For orientation: MIC means the lowest concentration found to suppress growth. What is called Kd is the equilibrium constant for the complex coming apart. As usually defined, the MIC90 is an inhibitory concentration at the 90% level, which refers to growth in some studies and to a panel of isolates in others. The low end stands for greater potency, the high end for weaker potency.

Converted amounts (≈) assume the structure as drawn. *1 amine or outer side, *2 acyl side, *3 side chain or, on linkers, in order; H or OH if unused. Where a SMILES comes first, the peptide text is derived from it. Bridges are numbered along the chain shown (N, C = ends). [ ]: non-standard residue; d: D form. The star is where a group is joined. X1 = CC(C)=CCc1ccc(Cl)c2[nH]cc(CC(N[*:1])C(=O)[*:2])c12; Trp(7-Cl) = N[CH](Cc1c[nH]c2c(Cl)cccc12)C(=O)O; Malonyl = O=C(CC(=O)[*:2])[*:1]; Cya = N[CH](CS(=O)(=O)O)C(=O)O; dDab = NCC[C@@H](N)C(=O)O; Octanoyl = CCCCCCCC(=O)*; Orn = NCCC[C@H](N)C(=O)O; Dab = NCC[C@H](N)C(=O)O

The subject of data set [1] is Escherichia coli. Kind of data set: Antibacterial activity against wild-type Escherichia coli. The class given is functional.
Data set [2] has as its system Escherichia coli. Nature of the data set: Antibacterial activity against tolC-deficit Escherichia coli measured after 16 hrs by serial dilution method. The class given is functional.
The subject of data set [3] is Escherichia coli. Nature of the data set: Antibacterial activity against tolC-deficit Escherichia coli in presence of human serum albumin. The data set is classed as functional.
The subject of data set [4] is Staphylococcus aureus. Nature of the data set: Antibacterial activity against Staphylococcus aureus. The data set is classed as functional.
The next data set concerns Acinetobacter baumannii. Kind of data set: Antibacterial activity against Acinetobacter baumannii. The class given is functional.
Data set [5] relates to Pseudomonas aeruginosa. Kind of data set: Antibacterial activity against Pseudomonas aeruginosa. The data set is classed as functional.
In data set [6] the test system is Staphylococcus aureus. Kind of data set: Antibacterial activity against methicillin-resistant Staphylococcus aureus by CLSI broth dilution method. The data set is classed as functional. A general note: In broth dilution the organism is exposed to a series of concentrations in liquid medium.
The test system of data set [7] is Pseudomonas aeruginosa. Kind of data set: Antibacterial activity against Pseudomonas aeruginosa PAO1 measured after 16 to 20 hrs by microbroth dilution assay. The class given is functional.
Data set [8] has as its system Pseudomonas aeruginosa. Kind of data set: Antibacterial activity against Pseudomonas aeruginosa ATCC 27853 by microdilution method. The data set is classed as functional.
Data set [9] concerns Escherichia coli. Nature of the data set: Antibacterial activity against Escherichia coli PAS0232 harboring SPase P84S mutant by CLSI microbroth dilution assay. The class given is functional.
Data set [10] can be described thus: Selectivity ratio of MIC for Staphylococcus epidermidis PAS9001 harboring SPase S29P mutant to MIC for Staphylococcus epidermidis RP62A. The class given is functional.
In data set [11] the test system is Staphylococcus epidermidis. Nature of the data set: Antibacterial activity against Staphylococcus epidermidis PAS8001 harboring SPase P29S mutant by CLSI microbroth dilution method. The class given is functional.
For data set [12], the system named is Staphylococcus epidermidis. Kind of data set: Antibacterial activity against Staphylococcus epidermidis RP62A harboring wild-type SPase by CLSI microbroth dilution method. The data set is classed as functional.
Data set [13] has as its system Staphylococcus epidermidis. Kind of data set: Antibacterial activity against Staphylococcus epidermidis PAS9001 harboring SPase S29P mutant by CLSI microbroth dilution assay. The class given is functional.
For data set [14], the system named is Pseudomonas aeruginosa. Kind of data set: Antibacterial activity against Pseudomonas aeruginosa PAS2006 harboring SPase P84S mutant by CLSI microbroth dilution assay. The class given is functional.
Data set [15] in a line: Inhibition of Escherichia coli His6-tagged LpxD after 15 mins by fluorescence polarization assay. (Fluorescence polarisation rises when a labelled molecule tumbles more slowly, as on binding a larger partner.)
Data set [16] in a line: Inhibition of Escherichia coli LpxA after 15 mins by fluorescence polarization assay.
For data set [17], the system named is Escherichia coli. Nature of the data set: Antibacterial activity against Escherichia coli by agar dilution method. The data set is classed as functional.
The subject of data set [18] is Escherichia coli. Nature of the data set: Antibacterial activity against Escherichia coli after 16 to 20 hrs by agar well diffusion method. The class given is functional.
The nature of data set [19]: Hemolytic activity against human RBC. The class given is ADME, cell-based. The note with it: erythrocyte.
For data set [20], the system named is Escherichia coli. Kind of data set: Antibacterial activity against acrAB-efflux pump deficit Escherichia coli. The class given is functional.
Data set [21] concerns Pseudomonas aeruginosa. Nature of the data set: Potentiation of colistin-induced antibacterial activity against Pseudomonas aeruginosa PAO1 infected in BALB/c mouse assessed as log reduction in bacterial burden in lungs at 2.08 mg/kg, it measured after 6 hrs by serial dilution method. The data set is classed as functional, Lung.
Data set [22] relates to Pseudomonas aeruginosa. Kind of data set: Antibacterial activity against MexABCDXY-deficit Pseudomonas aeruginosa measured after 16 hrs by serial dilution method. The data set is classed as functional.
Data set [23] deals with Pseudomonas aeruginosa. Nature of the data set: Antibacterial activity against wild-type Pseudomonas aeruginosa measured after 16 hrs by serial dilution method. The data set is classed as functional.
Data set [24] concerns Escherichia coli. Kind of data set: Antibacterial activity against wild-type Escherichia coli measured after 16 hrs by serial dilution method. The data set is classed as functional.

Consider `CC(C)(C)c1nc(-c2ccc3c(c2)OCCO3)c(-c2ccncc2)[nH]1`, for which the values for the MIC in the data set with Escherichia coli [1], with Escherichia coli [2] and in the data set on Escherichia coli [3] were 32 µg/mL (≈ 95.4 µM), 0.25 µg/mL (≈ 0.745 µM) and 4 µg/mL, respectively.
Regarding `CC[C@H](C)[C@@H]1NC(=O)[C@H](CCCNC(=N)N)NC(=O)[C@H](Cc2cc3ccccc3[nH]2)NC(=O)[C@@H]2CCCN2C(=O)[C@H]2CCCN2C(=O)[C@H](CCCNC(=N)N)NC(=O)[C@H](CCCNC(=N)N)NC(=O)[C@H](CC(C)C)NC(=O)[C@H](CCCNC(=N)N)NC(=O)[C@H](CCCCN)NC(=O)[C@H](Cc2c[nH]c3ccccc23)NC(=O)[C@@H](CCCNC(=N)N)NC(=O)[C@H]([C@@H](C)CC)NC(=O)[C@H](CCCNC(=N)N)NC1=O`, the MIC against Staphylococcus aureus [4] was 2 µg/mL (≈ 1.01 µM); against Escherichia coli [1], 0.25 µg/mL (≈ 0.127 µM); in the data set with Acinetobacter baumannii, 1 µg/mL (≈ 0.507 µM); in the data set on Pseudomonas aeruginosa [5], 4 µg/mL (≈ 2.03 µM).
In the data set with Staphylococcus aureus [6], `CC(C)=CCc1ccc(Cl)c2[nH]cc(CC3NC(=O)C(Cc4c[nH]c5c(Cl)cccc45)NC(=O)C4CCCN4C(=O)C(CS(=O)(=O)O)NC(=O)C(NC(=O)C(NC(=O)C(C)NC(=O)CC(=O)O)C(C)C)COC(=O)C(CO)NC(=O)C(CC(C)C)NC(=O)C(C(C)C)NC3=O)c12` (configuration not stated) (Malonyl-AVS[Cya]P[Trp(7-Cl)][X1]VLS; ester 3-C; configuration not given here) yielded an MIC of 0.5 to 128 µg/mL (≈ 0.357 to 91.4 µM).
Take `C[C@@H](O)[C@H](NC(=O)c1ccc(C#Cc2ccc(CN3CCOCC3)cc2)cc1)C(=O)NO`: inhibition of growth in the data set with Pseudomonas aeruginosa [7] (MIC) required 1 µg/mL (≈ 2.29 µM).
Compound `CC[C@H](C)[C@@H]1NC(=O)[C@H](Cc2c[nH]c3ccccc23)NC(=O)[C@H]([C@@H](C)O)NC(=O)[C@@H]2CCCN2C(=O)[C@H]2CCCN2C(=O)[C@H](CO)NC(=O)[C@H](C)NC(=O)[C@H](CCN)NC(=O)[C@H](CCN)NC(=O)[C@H](Cc2c[nH]c3ccccc23)NC(=O)[C@H](CCN)NC(=O)[C@@H](CCN)NC(=O)[C@H](CCCN)NC(=O)[C@H](CCN)NC1=O` [MUREPAVADIN] (cyclo(TWI[Dab][Orn][dDab][Dab]W[Dab][Dab]AS[dP]P)) registered an MIC in the data set with Pseudomonas aeruginosa [8] of 0.008 µg/mL (≈ 0.00515 µM).
Turning to `CCCCCCCCCCCCCCCC(=O)N(C)[C@H](CO)C(=O)N[C@H](C)C(=O)NCC(=O)N(C)[C@@H]1C(=O)N[C@@H](C)C(=O)N[C@@H](C(=O)O)Cc2ccc(O)c(c2)-c2cc1ccc2O`, the MIC in the data set with Escherichia coli [9] was determined as 4 µg/mL (≈ 4.54 µM); in data set [11], 2 µg/mL (≈ 2.27 µM); in data set [12], 0.25 µg/mL (≈ 0.284 µM); in data set [13], 8 µg/mL (≈ 9.08 µM); against Pseudomonas aeruginosa [14], 8 µg/mL (≈ 9.08 µM). Also, the Ratio in [10] came out at 32.
With `CC(C)(N)[C@H](NC(=O)c1ccc(C#CC#C[C@@H]2C[C@H]2CO)cc1)C(=O)NO` [ACHN-975], the MIC with Pseudomonas aeruginosa [8] is 0.25 µg/mL (≈ 0.677 µM).
On to H-TNLYMLPKWDIP-NH2, for which the Kd is 6 µM in [15] and 20 µM in data set [16].
In the data set with Escherichia coli [17], `CCCCCCCCCC[C@H]1OC(=O)CNC(=O)[C@H]([C@@H](C)O)NC(=O)[C@H](CO)NC(=O)[C@H]([C@H](C)CC)NC(=O)[C@H](CC(C)C)N(C)C(=O)[C@@H]1C` had an MIC of 1.56 µg/mL (≈ 2.19 µM).
For the compound `CCCCCCCC(=O)N[C@H](C(=O)N[C@@H](CO)C(=O)N[C@H]1CCNC(=O)[C@H]([C@@H](C)O)NC(=O)[C@H](CCN)NC(=O)[C@H](CCN)NC(=O)[C@H](CC(C)C)NC(=O)[C@@H](Cc2ccccc2)NC(=O)[C@H](CCN)NC1=O)[C@@H](C)O` (Octanoyl-TS[Dab][Dab][dF]L[Dab][Dab]T; lactam 3-C), the MIC90 in the data set on Escherichia coli [18] was 1 µg/mL (≈ 0.929 µM).
Turning to `CC[C@H](C)[C@@H]1NC(=O)[C@H](Cc2c[nH]c3ccccc23)NC(=O)[C@H]([C@@H](C)O)NC(=O)[C@@H]2CCCN2C(=O)[C@H]2CCCN2C(=O)[C@H](CCN)NC(=O)[C@H](C)NC(=O)[C@H](CCN)NC(=O)[C@H](CCN)NC(=O)[C@H](Cc2c[nH]c3ccccc23)NC(=O)[C@H](CCN)NC(=O)[C@@H](CCN)NC(=O)[C@H](CCCCN)NC(=O)[C@H](CCN)NC1=O` (cyclo(TWI[Dab]K[dDab][Dab]W[Dab][Dab]A[Dab][dP]P)), the Activity in data set [19] is above 100 µg/mL.
For the compound `Sc1ccccc1C1=NCCCN1`, the MIC amounted to 16 µg/mL (≈ 83.2 µM) against Escherichia coli [1] and 8 µg/mL (≈ 41.6 µM) against Escherichia coli [20].
Take `CC[C@H](C)[C@H](NC(=O)[C@@H](N)Cc1ccccc1)C(=O)N[C@@H](CCCNC(=N)N)C(=O)N[C@@H](CC(C)C)C(N)=O` (H-FIRL-NH2): in the data set on Pseudomonas aeruginosa [21], the Activity was 1 log10CFU/ml.
Consider `CN(C)c1ccc(C2=NCCCN2)c(S)c1`, for which the MIC in the data set on Escherichia coli [1] amounted to 16 µg/mL (≈ 68 µM); with Escherichia coli [20] it was 8 µg/mL (≈ 34 µM).
Compound `CCCC(C)/C=C(/C)C(=O)OC(CCCCCCC/C=C/C(=O)NCCC(=O)NC(CS(=O)(=O)O)C(=O)N(C)C1C(=O)NC(C)C(=O)NC(C(=O)O)Cc2ccc(OS(=O)(=O)O)c(c2)-c2cc1cc(OS(=O)(=O)O)c2OC1O[C@H](C)[C@@H](O)[C@H](O)[C@@H]1O)CCC(C)C` (some centres not stated) showed an MIC with Staphylococcus aureus [6] of 16 to 128 µg/mL (≈ 11.9 to 94.9 µM).
As for `Fc1ccc(COc2cccc(-c3n[nH]cc3-c3ccncc3)c2)cc1`, the MIC was 8 µg/mL (≈ 23.2 µM) in the data set on Escherichia coli [1], below 0.063 µg/mL against Escherichia coli [2] and 16 µg/mL in the data set with Escherichia coli [3].
In the data set with Escherichia coli [17], `CCC[C@@H]1OC(=O)[C@@H](C)C[C@H](C)CCCCC(=O)CCC[C@@H](CC)CC/C=C(\COC)CC[C@@H](O)[C@@H](O)C[C@H](O)CNC1=O` came in with an MIC of 3.12 µg/mL (≈ 4.98 µM).
Turning to `N=C(N)SCc1ccc(Cl)c(Cl)c1`, the minimum inhibitory concentration (MIC) with Pseudomonas aeruginosa [22] is 1 µg/mL (≈ 4.25 µM); against Escherichia coli [2], above 32 µg/mL; in the data set with Pseudomonas aeruginosa [23] it was 4 µg/mL (≈ 17 µM); against Escherichia coli [24] it was above 32 µg/mL.
In the data set on Escherichia coli [17], `CCC[C@@H]1OC(=O)[C@@H](C)C[C@H](C)CCCCC(=O)CCC[C@@H](CC)/C=C/C=C(\COC)CC[C@@H](O)[C@@H](O)C[C@H](O)CNC1=O` returned an MIC of 6.25 µg/mL (≈ 10 µM).

These data come from ChEMBL document CHEMBL3864123, “Drug discovery strategies to outer membrane targets in Gram-negative pathogens” (Bioorg Med Chem, 2016).
